Measurements taken from US4732901A, “Certain pyridyl, thienyl or furyl propenoic acids or esters having anti-inflammatory anti-allergic properties” (Beecham Group p.l.c., priority 1985, dated 1988).

Key:
[1] = target: T1, 5-Lipoxygenase enzyme (10,000 g supernatant from RBL-1 cells) (Rattus norvegicus, UniProt P12527); test: RBL-1 5-Lipoxygenase Screen; type: biochemical; conditions: decrease in 5-HETE + 5,12-diHETE formation relative to control, read-out: Per cent inhibition of 5-lipoxygenase at × μM concentration; for inhibition at 20 µM: at 20 μM compound
T1 construct: prepared as a 10,000 g supernatant from RBL-1 cells; endogenous in cells; host or cells: RBL-1 cells (10,000 g supernatant)
T1 sequence (P12527 1-673): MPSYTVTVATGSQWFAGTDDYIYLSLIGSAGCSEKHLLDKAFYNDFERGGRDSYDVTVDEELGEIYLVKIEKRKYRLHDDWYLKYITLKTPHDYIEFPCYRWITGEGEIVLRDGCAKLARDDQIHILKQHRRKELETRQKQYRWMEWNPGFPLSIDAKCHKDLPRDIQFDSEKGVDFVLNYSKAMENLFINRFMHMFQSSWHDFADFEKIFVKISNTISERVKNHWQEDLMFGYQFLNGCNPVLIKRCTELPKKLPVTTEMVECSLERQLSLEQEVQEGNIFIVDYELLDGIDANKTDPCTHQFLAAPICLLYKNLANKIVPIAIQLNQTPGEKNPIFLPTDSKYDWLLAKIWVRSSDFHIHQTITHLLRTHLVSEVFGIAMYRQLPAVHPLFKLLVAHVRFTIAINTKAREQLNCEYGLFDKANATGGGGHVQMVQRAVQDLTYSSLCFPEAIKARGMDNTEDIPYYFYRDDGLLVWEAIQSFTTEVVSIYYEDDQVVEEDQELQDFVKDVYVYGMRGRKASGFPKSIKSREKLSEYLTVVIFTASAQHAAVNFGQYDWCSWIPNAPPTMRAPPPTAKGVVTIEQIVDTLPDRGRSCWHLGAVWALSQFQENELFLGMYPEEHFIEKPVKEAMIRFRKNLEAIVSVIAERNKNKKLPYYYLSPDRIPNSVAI
Procedure: (1) RBL-1 5-Lipoxygenase Screen
5-Lipoxygenase enzyme was prepared as a 10,000 g supernatant from RBL-1 cells by the method of Jakschik (Jakschik, B. A., F. F. Sun, L. M. Lee, and M. M. Steinhoff, 1980, Biochem. Biophys. Res. Comm. 95, 103). The 10,000 g supernatant was diluted with homogenization buffer to the equivalent of 1.5-2.5×10^7 cells. ml.^-1 and made 2 mM with respect to CaCl2. Aliquots of 0.5 ml were then dispensed into tubes, and incubated at 29° C. with 5 ul ethanol or compound in ethanol at the desired concentration for 2 min. Then [1-^14 C] arachidonic acid was added in buffer to give a final concentration of 6.3 uM and 0.2 uCi per incubation, and the reaction continued at 29° C. for 2 min. The reaction was terminated by adding 1 ml of acetone and cooling on ice, 0.5 ml of ice-cold saline and 100 ul of 2N formic acid were added, and the mixture was extracted with 2×2 ml of chloroform. The extract was stored under N2 at -20° C. until analysis by chromatography. Activity was measured as the percentage of total radioactivity found in 5-HETE and 5,12-diHETE, and inhibition calculated as the decrease in formation of the sum of these two species in compound-treated incubates relative to control incubations.

[2] = tested on: cyclo-oxygenase (bovine seminal vesicle microsomes); test: Cyclo-oxygenase Screen; type: biochemical; conditions: at 50 μM compound; decrease in prostaglandin formation
Procedure: (2) Cyclo-oxygenase Screen
Compounds were preincubated with the incubation constitutents for 5 min at 37° C. before the reaction was started by the addition of the arachidonic acid. The reaction was continued at 37° C. for 2 min, then stopped by placing the incubations on ice and the addition of 1.2 ml 0.2M citric acid. Unmetabolised substrate and prostaglandin products were extracted in ethyl acetate (2×4 ml), the combined extracts washed with 0.8 ml water, and separated by thin-layer chromatography (Kieselgel GF254 plates in ethyl acetate:acetone:glacial acetic acid, 90:10:1, v/v). Recovery was 65-80%. The regions on the thin-layer chromatography plate that chromatographed with authentic arachidonic acid or prostaglandins E2 and F2 α (Rf 's 0.70, 0.28 and 0.16 respectively) were scraped and the radioactivity in each determined by liquid scintillation counting with a correction for quenching being made by the external standard-channels ratio method. Inhibition of cyclo-oxygenase activity was calculated from the decrease in prostaglandin formation. Each compound concentration was tested in triplicate and the 50% inhibitory concentration, if determined, was calculated by linear regression from the inhibitory data at, at least three different compound concentrations.

Row | inhibition at 20 µM [1] [%] | Per cent inhibition of cyclo-oxygenase at 50 μM concentration [2] [%] | inhibition at 5 µM ([1]; at 5 μM compound) [%] | SMILES
1 | 30 | – | – | CCCCCCCCCCCC#Cc1cnccc1/C=C/C(=O)O [Example 2, 3-[3-(1-Tridecynyl)-4-pyridyl)prop-2-enoic acid]
2 | 72 | 15 | – | CCCCCCCCCCCC#Cc1cnccc1C=C(C(=O)O)C(=O)O [Example 4, 2-[3-(1-Tridecynyl)-4-pyridyl]methylenepropane-1,3-dioic acid]
3 | – | 46 | 38 | CCCCCCCCCCCC#Cc1ccoc1/C=C/C(=O)O [Example 7, 3-[3-(1-Tridecynyl)-2-furanyl]prop-2-enoic acid]
